This is an account of results in patent US12570642B2, “GLP-IR modulating compounds” (Gilead Sciences, Inc., priority 2021, dated 2026).

Each structure is given as a SMILES string. pEC50: −log10 of the molar value.

For the experiment, the target named is GLP-1R (Homo sapiens, UniProt P43220). The experiment is described as follows: GLP-1R Activation - cAMP Assay. It is filed as cell-based. The settings on record: each compound run on one of the two cAMP assays (Assay 1 or Assay 2, not specified). The gist of the method:
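cAMP rise read by HTRF after 30 min agonist exposure (10-point titration, 37 °C) in HBSS/20 mM Hepes/0.1% BSA, following 1 h pre-incubation. Cells: stable GLP-1R CHO line, 1,000/well, seeded overnight. Sigmoidal fit of response vs log concentration gives EC50.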
(In general: Changes in cAMP serve as a functional read-out for many G protein-coupled receptors.)

Where [1] appears, read: cAMP increase in CHO cells stably expressing GLP-1R.

Chain of GLP-1R (P43220 24-463): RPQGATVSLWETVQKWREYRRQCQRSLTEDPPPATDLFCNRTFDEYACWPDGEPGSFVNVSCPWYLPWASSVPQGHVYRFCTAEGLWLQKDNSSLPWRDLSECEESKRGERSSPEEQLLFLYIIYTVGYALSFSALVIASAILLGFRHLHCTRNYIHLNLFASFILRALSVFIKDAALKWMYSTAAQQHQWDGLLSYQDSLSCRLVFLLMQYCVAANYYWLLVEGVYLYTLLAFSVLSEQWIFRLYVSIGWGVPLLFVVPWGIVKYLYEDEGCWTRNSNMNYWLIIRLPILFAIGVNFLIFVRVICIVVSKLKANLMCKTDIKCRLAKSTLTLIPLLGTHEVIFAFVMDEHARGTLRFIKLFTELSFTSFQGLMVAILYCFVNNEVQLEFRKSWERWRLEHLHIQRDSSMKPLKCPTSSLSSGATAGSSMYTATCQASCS

`COCCn1c(Cc2cc(F)c(-c3ccc(F)c(OCc4ccc(C#N)cc4F)n3)cc2F)nc2ccc(C(=O)O)c(F)c21` [Example 125, 2-(4-(6-((4-cyano-2-fluorobenzyl)oxy)-5-fluoropyridin-2-yl)-2,5-difluorobenzyl)-7-fluoro-1-(2-methoxyethyl)-1H-benzo[d]imidazole-6-carboxylic Acid]: under setting [1], the pEC50 is 9.95.

Under setting [1], `CC1(C)COC[C@H]1n1c(Cc2cc(F)c(-c3cccc(OCc4ccc(C(F)F)nc4)n3)cc2F)nc2ccc(C(=O)O)cc21` [Example 420, (S)-2-(4-(6-((6-(difluoromethyl)pyridin-3-yl)methoxy)pyridin-2-yl)-2,5-difluorobenzyl)-1-(4,4-dimethyltetrahydrofuran-3-yl)-1H-benzo[d]imidazole-6-carboxylic acid] showed a pEC50 of 9.38.

`COc1cc(Cl)ncc1COc1cccc(-c2cc(F)c(Cc3nc4ccc(C(=O)O)cc4n3C3COCC3(C)C)cc2F)n1` (centres unmarked) [Example 294, 2-(4-(6-((6-chloro-4-methoxypyridin-3-yl)methoxy)pyridin-2-yl)-2,5-difluorobenzyl)-1-(4,4-dimethyltetrahydrofuran-3-yl)-1H-benzo[d]imidazole-6-carboxylic acid]: the negative logarithm of the EC50 (pEC50) under setting [1] is 10.68. Still for that read-out and setting: next, `N#Cc1ccc(COc2cccc(-c3cc(F)c(Cc4nc5ccc(C(=O)O)cc5n4[C@@H]4CCOC4)cc3F)n2)c(F)c1` [Example 5, (R)-2-(4-(6-((4-cyano-2-fluorobenzyl)oxy)pyridin-2-yl)-2,5-difluorobenzyl)-1-(tetrahydrofuran-3-yl)-1H-benzo[d]imidazole-6-carboxylic acid]: 9.11; `COCCn1c(Cc2ccc(-c3cccc(OCc4ccc(C#N)cc4F)n3)c3c2COC3)nc2ccc(C(=O)O)cc21` [Example 97]: 7.67. Same read-out and setting: next, `CC(C)(O)C#Cc1cc(C(=O)O)cc2c1nc(Cc1cc(F)c(-c3cccc(OCc4ccc(C#N)cc4F)n3)cc1F)n2C1COCC1(C)C` (centres unmarked) [Example 47]: 9.11; `N#Cc1ccc(COc2cccc(-c3cc(F)c(Cc4nc5ccc(C(=O)O)cc5n4[C@@H]4COC[C@@H]4C4CC4)cc3F)n2)c(F)c1` [Example 191, 2-(4-(6-((4-cyano-2-fluorobenzyl)oxy)pyridin-2-yl)-2,5-difluorobenzyl)-1-((3S,4R)-4-cyclopropyltetrahydrofuran-3-yl)-1H-benzo[d]imidazole-6-carboxylic acid]: 9.45. With `CC(=O)N[C@@H]1COC[C@@H]1n1c(Cc2cc(F)c(-c3cccc(OCc4ccc(C#N)cc4F)n3)cc2F)nc2ccc(C(=O)O)cc21` [Example 17, 1-((3R,4S)-4-acetamidotetrahydrofuran-3-yl)-2-(4-(6-((4-cyano-2-fluorobenzyl)oxy)pyridin-2-yl)-2,5-difluorobenzyl)-1H-benzo[d]imidazole-6-carboxylic Acid], the negative-log EC50 (pEC50) ([…]) is 8.25. Turning to `O=C(O)c1cc(F)c2nc(Cc3cc(F)c(-c4ncc(F)c(OCc5ccc(C(F)(F)F)cc5F)n4)cc3F)n(C[C@@H]3CCO3)c2c1` [Example 148, (S)-2-(2,5-difluoro-4-(5-fluoro-4-((2-fluoro-4-(trifluoromethyl)benzyl)oxy)pyrimidin-2-yl)benzyl)-4-fluoro-1-(oxetan-2-ylmethyl)-1H-benzo[d]imidazole-6-carboxylic Acid], under setting [1], the pEC50 was 9.76. Regarding `COCCn1c(Cc2c(F)cc(-c3cccc(OCc4ccc(C#N)cc4F)n3)c(F)c2F)nc2c(F)cc(C(=O)O)cc21` [Example 292, 2-(4-(6-((4-cyano-2-fluorobenzyl)oxy)pyridin-2-yl)-2,3,6-trifluorobenzyl)-4-fluoro-1-(2-methoxyethyl)-1H-benzo[d]imidazole-6-carboxylic acid], under setting [1], the pEC50 is 9.88.

Molecule `CC1(C)COC[C@H]1n1c(Cn2cc(F)c(-c3cccc(OCc4ccc(Cl)cc4)n3)cc2=O)nc2ccc(C(=O)O)cc21` [Example 297, (S)-2-((6-((4-chlorobenzyl)oxy)-5′-fluoro-2′-oxo-[2,4′-bipyridin]-1′(2′H)-yl)methyl)-1-(4,4-dimethyltetrahydrofuran-3-yl)-1H-benzo[d]imidazole-6-carboxylic acid] gave a pEC50 under setting [1] of 9.82.

Usually pEC50 stands for the EC50 on a negative log10 scale, so that one unit is a factor of ten.
